Data set [1] relates to Neonatal Rat Ventricular Myocytes (NRVMs). Nature of the data set: Calcium transient (Tdecay) in single-pulse stimulated NRVMs, CTIC. The data set is classed as cell-based. To be noted: for Tdecay Mean / Tdecay Diff. (%) control vs compound / Tdecay Difference (ms) control vs compound: single pulse; for Tdecay Mean: average signal of three wells. The text has this: (§1) A Calcium Transient Image Cytometer (CTIC) instrument and software have been developed at Vala Sciences to analyze calcium transient and other fluorescent read out in stimulated cardiomyocytes which is utilized in the Examples described herein. The instrument consists of a Nikon Eclipse™ microscope with a 20× objective, a Cohu 6612-3000 monochrome ½″ digital/analog progressive scan camera (which operates at 30 or 60 Hz), a Pentium™ 4-based PC, and a 200 gigabyte external “firewire” hard drive.
Platinum electrodes are mounted on a micromanipulator to stimulate cardiomyocytes cultured in a 96-well plate. The plate is placed, without a lid, on the stage of a robotic inverted microscope outfitted for fluorescence microscopy. The mechanical stage of the microscope moves to bring each well into position and the micromanipulator lowers to the pair of electrodes to bring them into contact with the culture medium of the well that is being analyzed. The voltage used to stimulate the cells is on the order of 20 to 30 volts, utilizing square wave pulses of 5 to 20 msec. A “polarity reverser” is included in the circuit to maintain electrode performance and effective stimulation of cardiac myocytes. FIG. 3 describes the prototype setting. After positioned on the well, the electrodes move to the “down” position, the instrument autofocuses on cells nuclei (blue channel), stimulates the cells (single stimulus or at 1 to 3 Hz for 3 to 10 seconds) and acquires the fluo-4 channel (green channel). Subsequently, the electrodes move to the “up” position and the instrument moves to another well, repeating the entire process. The time required to sample each well will range from 20 to 30 seconds, depending on the number of frames that are collected and the rate of stimulation.
The instrument is incorporated in a 37° C. chamber with CO2 and O2 percentage controllers, allowing the execution of experiment in approximate physiological conditions. The calcium analysis software, developed at Vala Sciences as a plug-in for Vala's CyteSeer High Content Analysis™ software, converts the fluo-4 and Hoechst 33342 fluorescence signals in a binary mask, to distinguish portions of the images corresponding to single cells. Then, comparing the images acquired during the stimulation, the software reports the calcium variation for the well or for every single cell and the average value for the well. Traces can be filtered to remove low responders or kinetics with specific characteristics.
A number of kinetic parameters can be automatically derived either for the nuclear, cytoplasm or the whole cell compartments: The Full Width at Half Maximum (FWHM), which is the time required for progression from the 50% point on the upstroke to 50% point on the downstroke, TRise, which is the time from 50% point to 100% on the upstroke, and the TDecay, which is the time period from 100% point to 50% point on the decay phase. Other values can be measured, including the time from 75% to 25% in the downstroke (T75-25) and the value at a particular time. Values are measured for single cells in the well and as average of the well.
The CTIC and calcium recording have been validated also for toxicity-related analysis. In one set of experiments, NRVMs are treated with either sparfloxacin or cisapride. The first one is a fluoroquinolone antibiotic no longer available in the U.S., known to induce QT interval prolongation at high dosage. The second one is a serotonin 5-HT4 receptor agonist, used to cure people with gastro esophageal reflux disease. […] This is a clear hallmark of compounds that predispose to arrhythmia and torsades de pointes.
Tdecay is indicated for the average signal of three control wells and three compound treated wells. The mean, standard deviation (SD) and percent error is calculated for each group. The difference between the control and the compound groups is also indicated.
FIGS. 5A and 5B show calcium transient in drug treated NRVMs. […]

Data set [2] has the same test system. It is filed as cell-based.
Description: as §1
Platinum electrodes are mounted on a micromanipulator to stimulate cardiomyocytes cultured in a 96-well plate. The plate is placed, without a lid, on the stage of a robotic inverted microscope outfitted for fluorescence microscopy. The mechanical stage of the microscope moves to bring each well into position and the micromanipulator lowers to the pair of electrodes to bring them into contact with the culture medium of the well that is being analyzed. […]
The instrument is incorporated in a 37° C. chamber with CO2 and O2 percentage controllers, allowing the execution of experiment in approximate physiological conditions. The calcium analysis software, developed at Vala Sciences as a plug-in for Vala's CyteSeer High Content Analysis™ software, converts the fluo-4 and Hoechst 33342 fluorescence signals in a binary mask, to distinguish portions of the images corresponding to single cells. […]

For the substance Sparfloxacin, the “Effect on Tdecay” value in data set [1] (100 μM during the stimulation) is on record as “clearly doubles the Tdecay”. For the same substance, the “Tdecay Mean” value in data set [1] (100 μM in recording buffer) was 1969 ms. For the same substance, in data set [1] (100 μM), the “Tdecay Diff. (%) control vs compound” value is “+106%” and the “Tdecay Difference (ms) control vs compound” value is recorded as “+1012 ms”. The “Calcium flux response to continuous stimulation” value in data set [2] is listed as “irregular calcium flux”.
On to Cisapride, for which, in data set [1] (1 μM), the “Early after depolarization (EAD)” value is “causes early after depolarization (EAD)”, the “Effect on Tdecay” value is recorded as “induces an increase in Tdecay”, the “Tdecay Diff. (%) control vs compound” value is on record as “+129%” and the “Tdecay Difference (ms) control vs compound” value is given as “+1210 ms”. Also, the “Tdecay Mean” value in data set [1] (1 μM in recording buffer) is 2145 ms.

The values above are taken from US10001470B2, “Method, system and composition for optically inducing cardiomyocyte contraction” (Sanford-Burnham Medical Research Institute, priority 2009, dated 2018).
